The numbers were not newly measured in article PMC3433420 (PLoS ONE, 2012), which cites them from elsewhere.

As a reminder, the Kd is the free concentration of one partner at which half of the binding sites on the other are occupied at equilibrium, for simple one-to-one binding.

This series addresses SH2 and PTB domains. The conditions noted are these: cited from earlier work. The source says:
Supplement pone.0044471.s022.xlsx, sheet "Most recent PM interactions" | column: Kd || Supplement pone.0044471.s022.xlsx, sheet "All original PM interactions" | column: Kd

The mark [1] stands for this setting: Protein ABL2, most recent PM interactions, ref Jones et al. 2006 / Kaushansky et al. Chem and Biol 2008.
[2] abbreviates: Protein SHC1-PTB, most recent PM interactions, ref Jones et al. 2006 / Kaushansky et al. Chem and Biol 2008.
Setting [3] is: protein ABL2, ref Jones et al. 2006 / Kaushansky et al. Mol Biosys 2008 / Kaushansky et al. Chem and Biol 2008.
Where [4] appears, read: protein SHB, ref Jones et al. 2006 / Kaushansky et al. Mol Biosys 2008 / Kaushansky et al. Chem and Biol 2008.
The mark [5] stands for this setting: protein YES1, ref Jones et al. 2006 / Kaushansky et al. Mol Biosys 2008 / Kaushansky et al. Chem and Biol 2008.
[6] abbreviates: Protein ABL2, most recent PM interactions, ref Jones et al. 2006 / Kaushansky et al. Mol Biosys 2008 / Kaushansky et al. Chem and Biol 2008.
Where [7] appears, read: Protein RASA1-N, most recent PM interactions, ref Jones et al. 2006 / Kaushansky et al. Mol Biosys 2008 / Kaushansky et al. Chem and Biol 2008.
Setting [8] is: Protein SHC1-PTB, most recent PM interactions, ref Jones et al. 2006 / Kaushansky et al. Mol Biosys 2008 / Kaushansky et al. Chem and Biol 2008.
Setting [9] is: Protein PIK3R3-NC, most recent PM interactions, ref Jones et al. 2006 / Kaushansky et al. Mol Biosys 2008 / Kaushansky et al. Chem and Biol 2008.
Setting [10] is: Protein RASA1-N, original PM interactions, ref Jones et al. 2006 / Kaushansky et al. Chem and Biol 2008.

Read-outs that look alike come from different tables or passages of the source.

FGGAVENPEpYLTPQGGA [ErbB2 1196]: the Kd reads like this: under setting [1], 0.48 µM; (Protein CRKL, most recent PM interactions, ref Jones et al. 2006 / Kaushansky et al. Chem and Biol 2008) 1.44 µM; (Protein FGR, most recent PM interactions, ref Jones et al. 2006 / Kaushansky et al. Chem and Biol 2008) 1.68 µM; (Protein GRB2, most recent PM interactions, ref Jones et al. 2006 / Kaushansky et al. Chem and Biol 2008) 1.33 µM; (Protein ITK, most recent PM interactions, ref Jones et al. 2006 / Kaushansky et al. Chem and Biol 2008) 0.77 µM; (Protein NCK2, most recent PM interactions, ref Jones et al. 2006 / Kaushansky et al. Chem and Biol 2008) 1.1 µM. In addition, the Kd was 0.23 µM (Protein PIK3R1-NC, most recent PM interactions, ref Jones et al. 2006 / Kaushansky et al. Chem and Biol 2008); 1.28 µM (Protein PIK3R2-N, most recent PM interactions, ref Jones et al. 2006 / Kaushansky et al. Chem and Biol 2008); 1.39 µM (Protein PIK3R3-N, most recent PM interactions, ref Jones et al. 2006 / Kaushansky et al. Chem and Biol 2008); 1.34 µM (Protein PIK3R3-NC, most recent PM interactions, ref Jones et al. 2006 / Kaushansky et al. Chem and Biol 2008); 1.35 µM (Protein PLCG2-NC, most recent PM interactions, ref Jones et al. 2006 / Kaushansky et al. Chem and Biol 2008); 0.67 µM (Protein RASA1-N, most recent PM interactions, ref Jones et al. 2006 / Kaushansky et al. Chem and Biol 2008). The Kd is 0.35 µM under setting [2]; 1.24 µM (Protein SYK-C, most recent PM interactions, ref Jones et al. 2006 / Kaushansky et al. Chem and Biol 2008); 1.33 µM (Protein SYK-NC, most recent PM interactions, ref Jones et al. 2006 / Kaushansky et al. Chem and Biol 2008); 1.25 µM (Protein VAV1, most recent PM interactions, ref Jones et al. 2006 / Kaushansky et al. Chem and Biol 2008); 0.23 µM (Protein VAV2, most recent PM interactions, ref Jones et al. 2006 / Kaushansky et al. Chem and Biol 2008); 0.6 µM (Protein VAV3, most recent PM interactions, ref Jones et al. 2006 / Kaushansky et al. Chem and Biol 2008). The Kd (Protein YES1, most recent PM interactions, ref Jones et al. 2006 / Kaushansky et al. Chem and Biol 2008) was 1.19 µM.

With “FLQRpYSSDPTGAd [ErbB1 pY1069, N-terminally rhodamine-labeled 13-mer phosphopeptide]”, the Kd was 2 µM under setting [3], 0.86 µM under setting [4] and 0.3 µM under setting [5].

“GSKPpYDGIPASEd [ErbB1 pY915, N-terminally rhodamine-labeled 13-mer phosphopeptide]”: the Kd is 0.14 µM under setting [3]; 1.18 µM (protein BLK, ref Jones et al. 2006 / Kaushansky et al. Mol Biosys 2008 / Kaushansky et al. Chem and Biol 2008); 1.47 µM (protein RASA1-N, ref Jones et al. 2006 / Kaushansky et al. Mol Biosys 2008 / Kaushansky et al. Chem and Biol 2008); 1.06 µM under setting [4]; 1.55 µM (protein SYK-NC, ref Jones et al. 2006 / Kaushansky et al. Mol Biosys 2008 / Kaushansky et al. Chem and Biol 2008); 0.33 µM under setting [5].

GTPTAENPEpYLGLDVPV [ErbB2 1248]: the Kd reads like this: under setting [1], 0.21 µM; under setting [2], 0.28 µM.

In the case of HQISLDNPDpYQQDFFPKd [ErbB1 1172], the dissociation constant (Kd) under setting [6] is 0.49 µM; the Kd under setting [7] was 1.14 µM; the Kd under setting [8] was 0.04 µM; the Kd (Protein SHC2-PTB, most recent PM interactions, ref Jones et al. 2006 / Kaushansky et al. Mol Biosys 2008 / Kaushansky et al. Chem and Biol 2008) was 1.31 µM; the Kd (Protein SYK-NC, most recent PM interactions, ref Jones et al. 2006 / Kaushansky et al. Mol Biosys 2008 / Kaushansky et al. Chem and Biol 2008) was 1.28 µM.

For HSTAVGNPEpYLNTVQPTd [ErbB1 1138], the equilibrium dissociation constant (Kd) under setting [6] was 0.12 µM; the Kd (Protein GRB2, most recent PM interactions, ref Jones et al. 2006 / Kaushansky et al. Mol Biosys 2008 / Kaushansky et al. Chem and Biol 2008) is 0.42 µM; the Kd (Protein ITK, most recent PM interactions, ref Jones et al. 2006 / Kaushansky et al. Mol Biosys 2008 / Kaushansky et al. Chem and Biol 2008) was 1.76 µM; the Kd (Protein NCK2, most recent PM interactions, ref Jones et al. 2006 / Kaushansky et al. Mol Biosys 2008 / Kaushansky et al. Chem and Biol 2008) is 0.33 µM; the Kd (Protein PIK3R1-NC, most recent PM interactions, ref Jones et al. 2006 / Kaushansky et al. Mol Biosys 2008 / Kaushansky et al. Chem and Biol 2008) is 1.57 µM; the Kd (Protein PIK3R2-N, most recent PM interactions, ref Jones et al. 2006 / Kaushansky et al. Mol Biosys 2008 / Kaushansky et al. Chem and Biol 2008) was 0.76 µM. In addition, the Kd (Protein PIK3R2-NC, most recent PM interactions, ref Jones et al. 2006 / Kaushansky et al. Mol Biosys 2008 / Kaushansky et al. Chem and Biol 2008) is 0.86 µM; the Kd (Protein PIK3R3-N, most recent PM interactions, ref Jones et al. 2006 / Kaushansky et al. Mol Biosys 2008 / Kaushansky et al. Chem and Biol 2008) is 0.84 µM; the Kd under setting [9] was 1.69 µM; the Kd under setting [7] was 0.39 µM; the Kd under setting [8] was 0.17 µM; the Kd (Protein VAV2, most recent PM interactions, ref Jones et al. 2006 / Kaushansky et al. Mol Biosys 2008 / Kaushansky et al. Chem and Biol 2008) was 0.37 µM. Under “Protein ZAP70-NC, most recent PM interactions, ref Jones et al. 2006 / Kaushansky et al. Mol Biosys 2008 / Kaushansky et al. Chem and Biol 2008”, the Kd is 1.14 µM.

Consider IKEDSFLQRpYSSDPTGAd [ErbB1 1069], for which the Kd by setting is: (Protein SHB, most recent PM interactions, ref Jones et al. 2006 / Kaushansky et al. Mol Biosys 2008 / Kaushansky et al. Chem and Biol 2008) 0.86 µM; (Protein YES1, most recent PM interactions, ref Jones et al. 2006 / Kaushansky et al. Mol Biosys 2008 / Kaushansky et al. Chem and Biol 2008) 0.3 µM.

Consider KGSTAENAEpYLRVAPQSd [ErbB1 1197], for which the Kd under setting [6] was 0.21 µM, the Kd under setting [9] was 1.11 µM and the Kd under setting [8] was 0.32 µM.

For KLLGAEEKEpYHAEGGKVd [ErbB1 869], the dissociation constant Kd was 1.08 µM under setting [6]; 1.71 µM (Protein BLK, most recent PM interactions, ref Jones et al. 2006 / Kaushansky et al. Mol Biosys 2008 / Kaushansky et al. Chem and Biol 2008).

With “KQLLpYSEAKTPId [ErbB3 pY868, N-terminally rhodamine-labeled 13-mer phosphopeptide]”, the Kd is, setting by setting: (Protein ABL2, original PM interactions, ref Jones et al. 2006 / Kaushansky et al. Chem and Biol 2008) 0.07 µM; (Protein BCAR3, original PM interactions, ref Jones et al. 2006 / Kaushansky et al. Chem and Biol 2008) 1.78 µM; (Protein CRKL, original PM interactions, ref Jones et al. 2006 / Kaushansky et al. Chem and Biol 2008) 1.76 µM; (Protein NCK2, original PM interactions, ref Jones et al. 2006 / Kaushansky et al. Chem and Biol 2008) 2 µM; (Protein PIK3R3-NC, original PM interactions, ref Jones et al. 2006 / Kaushansky et al. Chem and Biol 2008) 2 µM; under setting [10], 0.95 µM. Also, the dissociation constant (Kd) was 2 µM (Protein SHC1-PTB, original PM interactions, ref Jones et al. 2006 / Kaushansky et al. Chem and Biol 2008); 0.92 µM (Protein SYK-NC, original PM interactions, ref Jones et al. 2006 / Kaushansky et al. Chem and Biol 2008).

Regarding LGSGAFGTVpYKGLWIPEd [ErbB1 727], the Kd was 0.58 µM (Protein SRC, most recent PM interactions, ref Kaushansky et al. Mol Biosys 2008) and 0.54 µM (Protein YES1, most recent PM interactions, ref Kaushansky et al. Mol Biosys 2008).

As to “LGYEpYMDVGSDLd [ErbB3 pY1224, N-terminally rhodamine-labeled 13-mer phosphopeptide]”, the Kd (Protein PLCG2-NC, original PM interactions, ref Jones et al. 2006 / Kaushansky et al. Chem and Biol 2008) is 2 µM; the Kd under setting [10] was 2 µM; the Kd (Protein RASA1-NC, original PM interactions, ref Jones et al. 2006 / Kaushansky et al. Chem and Biol 2008) was 2 µM; the Kd (Protein SLA, original PM interactions, ref Jones et al. 2006 / Kaushansky et al. Chem and Biol 2008) was 2 µM; the equilibrium dissociation constant (Kd) (protein ABL2, ref Jones et al. 2006 / Kaushansky et al. Chem and Biol 2008) is 1.13 µM; the Kd (protein PIK3R3-NC, ref Jones et al. 2006 / Kaushansky et al. Chem and Biol 2008) was 1.51 µM.

For “LHRIpYTHQSDVWd [ErbB1 pY891, N-terminally rhodamine-labeled 13-mer phosphopeptide]”, the Kd reads like this: (protein HSH2D, ref Kaushansky et al. Mol Biosys 2008) 1.13 µM; (protein TNS4, ref Kaushansky et al. Mol Biosys 2008) 0.3 µM.
